The numbers were not newly measured in patent publication US11311556B2, “Topical dutasteride emulsions for treating endocrine therapy-induced alopecia” (Varsona Therapeutics, Inc., priority 2020, dated 2022), which cites them from elsewhere.

Read-outs that look alike come from different tables or passages of the source.

The subject of one data set is DHT. The note with it: oral, subjects with BPH.
For data set [1] the following is noted: 416 men, 12 to 24 weeks.

Regarding `C[C@]12C=CC(=O)N[C@@H]1CC[C@@H]1[C@@H]2CC[C@]2(C)[C@@H](C(=O)Nc3cc(C(F)(F)F)ccc3C(F)(F)F)CC[C@@H]12` [oral dutasteride, (5α, 17β)-N-{2,5 bis(trifluoromethyl)phenyl}-3-oxo-4-azaandrost-1-ene-17-carboxamide], the DHT blocked is given as 94.7+/−3.3% in the data set with DHT (0.5 mg daily dose) and 98.4% with DHT (5 mg daily dose). In data set [1], the “Hair count results versus oral finasteride” value is listed as “better hair count results than oral finasteride”.

In the case of `CC(C)(C)NC(=O)[C@H]1CC[C@H]2[C@@H]3CC[C@H]4NC(=O)C=C[C@]4(C)[C@H]3CC[C@]12C` [oral finasteride, finasteride], the DHT blocked in the data set on DHT (5 mg daily dose) is reported as 70.8+/−18.3%.
